Target: T1, human recombinant HDAC6 (Homo sapiens, UniProt Q9UBN7)
T1 construct: purchased Calbiochem 382180
T1 sequence (Q9UBN7 1-1215): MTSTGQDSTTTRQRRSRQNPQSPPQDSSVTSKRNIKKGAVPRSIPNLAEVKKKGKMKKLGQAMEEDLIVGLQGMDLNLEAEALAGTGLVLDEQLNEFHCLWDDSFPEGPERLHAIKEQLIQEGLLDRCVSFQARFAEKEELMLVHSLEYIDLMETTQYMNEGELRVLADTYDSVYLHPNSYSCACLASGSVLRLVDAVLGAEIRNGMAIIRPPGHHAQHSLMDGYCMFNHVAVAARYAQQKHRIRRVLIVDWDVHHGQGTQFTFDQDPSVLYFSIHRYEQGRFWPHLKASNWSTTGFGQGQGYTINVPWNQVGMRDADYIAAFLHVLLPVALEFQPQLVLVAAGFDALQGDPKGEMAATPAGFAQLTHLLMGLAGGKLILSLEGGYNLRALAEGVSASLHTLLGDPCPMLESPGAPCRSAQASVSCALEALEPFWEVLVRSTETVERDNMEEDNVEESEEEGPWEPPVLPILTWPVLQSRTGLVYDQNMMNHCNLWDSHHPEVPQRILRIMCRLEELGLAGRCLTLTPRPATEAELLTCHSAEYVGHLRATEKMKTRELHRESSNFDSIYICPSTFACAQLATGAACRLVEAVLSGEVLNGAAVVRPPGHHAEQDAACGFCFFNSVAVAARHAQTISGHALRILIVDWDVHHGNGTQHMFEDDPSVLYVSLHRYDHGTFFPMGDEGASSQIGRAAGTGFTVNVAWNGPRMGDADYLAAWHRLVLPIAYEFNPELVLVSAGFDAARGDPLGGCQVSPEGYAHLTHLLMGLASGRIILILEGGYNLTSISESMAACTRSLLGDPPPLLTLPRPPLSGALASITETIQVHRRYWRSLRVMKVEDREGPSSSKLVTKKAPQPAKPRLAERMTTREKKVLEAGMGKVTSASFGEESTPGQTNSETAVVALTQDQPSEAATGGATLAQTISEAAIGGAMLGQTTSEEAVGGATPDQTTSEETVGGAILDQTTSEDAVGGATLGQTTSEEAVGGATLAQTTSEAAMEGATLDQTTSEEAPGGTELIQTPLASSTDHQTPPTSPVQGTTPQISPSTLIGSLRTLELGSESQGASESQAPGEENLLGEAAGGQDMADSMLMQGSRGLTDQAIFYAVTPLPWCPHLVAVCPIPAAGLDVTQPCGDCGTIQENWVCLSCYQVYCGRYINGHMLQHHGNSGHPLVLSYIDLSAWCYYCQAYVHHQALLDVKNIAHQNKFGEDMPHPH
Assay: HDAC6 enzyme activity inhibition assay (HDAC Fluorimetric Drug Discovery Kit)
Type: biochemical
Conditions: for HDAC6 selectivity (fold): HDAC1 vs HDAC6; for IC50: same protocol as the HDAC1 enzyme activity test
Procedure, shortened: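 Fluorescence (Ex 360, Em 460) after 30 min developer step; IC50 from dose-response. Reaction: 0.3 μg recombinant enzyme, 10 μM Fluor de Lys-SIRT1 substrate, 5-fold compound dilutions, 60 min at 30° C. Same protocol for both isoforms.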

SMILES | HDAC6 selectivity (fold) | IC50
O=S(=O)(CCn1cncn1)N(Cc1ccc(-c2nnc(C(F)F)o2)cc1)c1ccccc1 [Compound 11809, N-(4-(5-(difluoromethyl)-1,3,4-oxadiazol-2-yl)benzyl)-N-phenyl-2-(1H-1,2,4-triazol-1-yl)ethane-1-sulfonamide] | 3222 fold | 30.1 nM
O=S(=O)(CCN1CCC(CO)CC1)N(Cc1ccc(-c2nnc(C(F)F)o2)cc1)c1ccccc1 [Compound 11810, N-(4-(5-(difluoromethyl)-1,3,4-oxadiazol-2-yl)benzyl)-2-(4-(hydroxymethyl)piperidin-1-yl)-N-phenylethane-1-sulfonamide] | 2793 fold | 35.8 nM
O=S(=O)(CCN1CCCC(CO)C1)N(Cc1ccc(-c2nnc(C(F)F)o2)cc1)c1ccccc1 (centres unmarked) [Compound 11811, N-(4-(5-(difluoromethyl)-1,3,4-oxadiazol-2-yl)benzyl)-2-(3-(hydroxymethyl)piperidin-1-yl)-N-phenylethane-1-sulfonamide] | 2358 fold | 42.4 nM
NC(=O)[C@@H]1CCCN1CCS(=O)(=O)N(Cc1ccc(-c2nnc(C(F)F)o2)cc1)c1ccccc1 [Compound 11812, (S)-1-(2-(N-(4-(5-(difluoromethyl)-1,3,4-oxadiazol-2-yl)benzyl)-N-phenylsulfamoyl)ethyl)pyrrolidine-2-carboxamide] | 3039 fold | 32.9 nM
NC(=O)[C@H]1CCCN1CCS(=O)(=O)N(Cc1ccc(-c2nnc(C(F)F)o2)cc1)c1ccccc1 [Compound 11813, (R)-1-(2-(N-(4-(5-(difluoromethyl)-1,3,4-oxadiazol-2-yl)benzyl)-N-phenylsulfamoyl)ethyl)pyrrolidine-2-carboxamide] | 2932 fold | 34.1 nM
CC(C)(C)OC(=O)N1CC2(CCN(CCS(=O)(=O)N(Cc3ccc(-c4nnc(C(F)F)o4)cc3)c3ccccc3)CC2)C1 [Compound 11814, tert-butyl 7-(2-(N-(4-(5-(difluoromethyl)-1,3,4-oxadiazol-2-yl)benzyl)-N-phenylsulfamoyl)ethyl)-2,7-diazaspiro[3.5]nonane-2-carboxylate] | 88 fold | 1130 nM
O=S(=O)(CCN1CCC(F)(F)C1)N(Cc1ccc(-c2nnc(C(F)F)o2)cc1)c1ccccc1 [Compound 11815, N-(4-(5-(difluoromethyl)-1,3,4-oxadiazol-2-yl)benzyl)-2-(3,3-difluoropyrrolidin-1-yl)-N-phenylethane-1-sulfonamide] | 1326 fold | 75.4 nM
O=S(=O)(CCn1ccnc1)N(Cc1ccc(-c2nnc(C(F)F)o2)cc1)c1ccccc1 [Compound 11816, N-(4-(5-(difluoromethyl)-1,3,4-oxadiazol-2-yl)benzyl)-2-(1H-imidazol-1-yl)-N-phenylethane-1-sulfonamide] | 2695 fold | 37.1 nM
O=S(=O)(CCN1CCC[C@H](O)C1)N(Cc1ccc(-c2nnc(C(F)F)o2)cc1)c1ccccc1 [Compound 11817, (S)—N-(4-(5-(difluoromethyl)-1,3,4-oxadiazol-2-yl)benzyl)-2-(3-hydroxypiperidin-1-yl)-N-phenylethane-1-sulfonamide] | 1718 fold | 58.2 nM
N#CC1CCN(CCS(=O)(=O)N(Cc2ccc(-c3nnc(C(F)F)o3)cc2)c2ccccc2)CC1 [Compound 11818, 2-(4-cyanopiperidin-1-yl)-N-(4-(5-(difluoromethyl)-1,3,4-oxadiazol-2-yl)benzyl)-N-phenylethane-1-sulfonamide] | 1647 fold | 60.7 nM
O=S(=O)(CCN1CCC(c2ccc(F)cc2)CC1)N(Cc1ccc(-c2nnc(C(F)F)o2)cc1)c1ccccc1 [Compound 11819, N-(4-(5-(difluoromethyl)-1,3,4-oxadiazol-2-yl)benzyl)-2-(4-(4-fluorophenyl)piperidin-1-yl)-N-phenylethane-1-sulfonamide] | 284 fold | 351 nM
COC(=O)C1CN(CCS(=O)(=O)N(Cc2ccc(-c3nnc(C(F)F)o3)cc2)c2ccccc2)C1 [Compound 11820, methyl 1-(2-(N-(4-(5-(difluoromethyl)-1,3,4-oxadiazol-2-yl)benzyl)-N-phenylsulfamoyl)ethyl)azetidine-3-carboxylate] | 1652 fold | 60.5 nM
O=S(=O)(CCN1CC(F)(F)C1)N(Cc1ccc(-c2nnc(C(F)F)o2)cc1)c1ccccc1 [Compound 11821, 2-(3,3-difluoroazetidin-1-yl)-N-(4-(5-(difluoromethyl)-1,3,4-oxadiazol-2-yl)benzyl)-N-phenylethane-1-sulfonamide] | 747 fold | 134 nM
O=S(=O)(CCN1CCC(O)CC1)N(Cc1ccc(-c2nnc(C(F)F)o2)cc1)c1ccccc1 [Compound 11822, N-(4-(5-(difluoromethyl)-1,3,4-oxadiazol-2-yl)benzyl)-2-(4-hydroxypiperidin-1-yl)-N-phenylethane-1-sulfonamide] | 1365 fold | 73.3 nM
O=C(CO)N1CC(N2CCC(S(=O)(=O)N(Cc3ccc(-c4nnc(C(F)F)o4)cc3)c3cccc(Cl)c3)CC2)C1 [Compound 11836, N-(3-chlorophenyl)-N-(4-(5-(difluoromethyl)-1,3,4-oxadiazol-2-yl)benzyl)-1-(1-(2-hydroxyacetyl)azetidin-3-yl)piperidine-4-sulfonamide] | 3147 fold | 31.8 nM
Cc1cccc(N(Cc2ccc(-c3nnc(C(F)F)o3)cn2)S(=O)(=O)C2CCN(C3CN(C(C)C)C3)CC2)c1 [Compound 11837, N-((5-(5-(difluoromethyl)-1,3,4-oxadiazol-2-yl)pyridin-2-yl)methyl)-1-(1-isopropylazetidin-3-yl)-N-(m-tolyl)piperidine-4-sulfonamide] | 4167 fold | 24 nM
CC(=O)N1CC(N2CCC(S(=O)(=O)N(Cc3ccc(-c4nnc(C(F)F)o4)cn3)c3cccc(C)c3)CC2)C1 [Compound 11838, 1-(1-acetylazetidin-3-yl)-N-((5-(5-(difluoromethyl)-1,3,4-oxadiazol-2-yl)pyridin-2-yl)methyl)-N-(m-tolyl)piperidine-4-sulfonamide] | 2241 fold | 44.6 nM
Cc1cccc(N(Cc2ccc(-c3nnc(C(F)F)o3)cn2)S(=O)(=O)C2CCN(C3CN(C(=O)CO)C3)CC2)c1 [Compound 11839, N-((5-(5-(difluoromethyl)-1,3,4-oxadiazol-2-yl)pyridin-2-yl)methyl)-1-(1-(2-hydroxyacetyl)azetidin-3-yl)-N-(m-tolyl)piperidine-4-sulfonamide] | 2236 fold | 44.7 nM
O=S(=O)(C1CCN(C2CC(F)C2)CC1)N(Cc1ccc(-c2nnc(C(F)F)o2)cc1)c1cccc(Cl)c1 (centres unmarked) [Compound 11840, N-(3-chlorophenyl)-N-(4-(5-(difluoromethyl)-1,3,4-oxadiazol-2-yl)benzyl)-1-(3-fluorocyclobutyl)piperidine-4-sulfonamide] | 520 fold | 192 nM
O=S(=O)(C1CCN(C2CC(F)C2)CC1)N(Cc1ccc(-c2nnc(C(F)F)o2)cn1)c1cccc(Cl)c1 (centres unmarked) [Compound 11841, N-(3-chlorophenyl)-N-((5-(5-(difluoromethyl)-1,3,4-oxadiazol-2-yl)pyridin-2-yl)methyl)-1-(3-fluorocyclobutyl)piperidine-4-sulfonamide] | 2790 fold | 35.8 nM
O=S(=O)(CCN1CC=C(c2ccc(Cl)cc2)CC1)N(Cc1ccc(-c2nnc(C(F)F)o2)cc1)c1ccccc1 [Compound 11842, 2-(4-(4-chlorophenyl)-3,6-dihydropyridin-1(2H)-yl)-N-(4-(5-(difluoromethyl)-1,3,4-oxadiazol-2-yl)benzyl)-N-phenylethane-1-sulfonamide] | 121 fold | 826 nM
O=S(=O)(CCN1Cc2cccc3cccc(c23)C1)N(Cc1ccc(-c2nnc(C(F)F)o2)cc1)c1ccccc1 [Compound 11843, 2-(1H-benzo[de]isoquinolin-2(3H)-yl)-N-(4-(5-(difluoromethyl)-1,3,4-oxadiazol-2-yl)benzyl)-N-phenylethane-1-sulfonamide] | 101 fold | 994 nM
